From PMC10584170, “Machine learning-based phenotypic imaging to characterise the targetable biology of Plasmodium falciparum male gametocytes for the development of transmission-blocking antimalarials” (PLOS Pathogens, 2023)
Like-named read-outs stand apart in the source and are kept apart here. Each block holds one molecule with its values, some of them ahead of it.

What was measured:
[1] = test system: P. falciparum female gametocytes; assay: P. falciparum Dual Gamete Formation Assay (PfDGFA), female readout (Pfs25-positive female gametes); assay type: cell-based, Plasmodium falciparum NF54; details: for Selectivity ratio F: HepG2 Tox50 versus female IC50; for IC50: PfDGFA, 24 h incubation with gametocytes before induction, female gamete readout, read-out: Female IC50; for HitlevelF: number of replicates with >50% inhibition in the female readout
Procedure, shortened: (§1)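 Male and female gamete formation were quantified by microscopy image analysis following 24 h incubation of mature NF54 gametocytes with compound and activation at 28°C with xanthurenic acid.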

HepG2 cells = assay: HepG2 cytotoxicity counter-screen; details: cytotoxic activity against HepG2 cells
[2] = test system: P. falciparum male gametocytes; assay: P. falciparum Dual Gamete Formation Assay (PfDGFA), male readout (exflagellation); assay type: cell-based, Plasmodium falciparum NF54; details: for Selectivity Ratio M: HepG2 Tox50 versus male IC50; for IC50: PfDGFA, 24 h incubation with gametocytes before induction, exflagellation readout, read-out: Male IC50; for HitlevelM: number of replicates with >50% inhibition in the male readout
Procedure, shortened: as §1

[3] = Plasmodium falciparum, PfDGFA at 2µM, 24h preincubation with gametocytes, average of replicates, read-out: Average inhibition female (%)
[4] = Plasmodium falciparum, PfDGFA at 2µM, 24h preincubation with gametocytes, replicate R1, read-out: % inhibition female (individual replicates) R1
[5] = Plasmodium falciparum, PfDGFA at 2µM, 24h preincubation with gametocytes, replicate R2, read-out: % inhibition female (individual replicates) R2
[6] = Plasmodium falciparum, PfDGFA at 2µM, 24h preincubation with gametocytes, replicate R3, read-out: % inhibition female (individual replicates) R3
[7] = Plasmodium falciparum, PfDGFA at 2µM, 24h preincubation with gametocytes, replicate R4, read-out: % inhibition female (individual replicates) R4
[8] = Plasmodium falciparum, PfDGFA at 2µM, 24h preincubation with gametocytes, average of replicates, read-out: Average inhibition male (%)
[9] = Plasmodium falciparum, PfDGFA at 2µM, 24h preincubation with gametocytes, replicate R1, read-out: % inhibition male (individual replicates) R1
[10] = Plasmodium falciparum, PfDGFA at 2µM, 24h preincubation with gametocytes, replicate R2, read-out: % inhibition male (individual replicates) R2
[11] = Plasmodium falciparum, PfDGFA at 2µM, 24h preincubation with gametocytes, replicate R3, read-out: % inhibition male (individual replicates) R3
[12] = Plasmodium falciparum, PfDGFA at 2µM, 24h preincubation with gametocytes, replicate R4, read-out: % inhibition male (individual replicates) R4
[13] = 2µM, 24h preincubation with gametocytes, average of replicates
[14] = 2µM, 24h preincubation with gametocytes, replicate R1
[15] = 2µM, 24h preincubation with gametocytes, replicate R3
[16] = 2µM, 24h preincubation with gametocytes, replicate R4

SMILES: Cc1cccc(Nc2nc(NCCCCN)nc3cc[nH]c(=O)c23)c1.O=C(O)C(F)(F)F [TCMDC-134946]
Selectivity ratio F [1]: 2.87
inhibition at 2 µM [1, 3]: 9%
inhibition at 2 µM [1, 4]: 6.6%
inhibition at 2 µM [1, 5]: 23%
inhibition at 2 µM [1, 6]: 13.1%
inhibition at 2 µM [1, 7]: -6.7%
IC50 ([1]; Plasmodium falciparum): > 10 µM
HitlevelF ([1]; 2µM): 0
Tox50 (HepG2 cells): 28.66 µM
Selectivity Ratio M [2]: 75.16
inhibition at 2 µM [2, 8]: 89.5%
inhibition at 2 µM [2, 9]: 94.1%
inhibition at 2 µM [2, 10]: 93.5%
inhibition at 2 µM [2, 11]: 87.3%
inhibition at 2 µM [2, 12]: 82.9%
IC50 ([2]; Plasmodium falciparum): 0.38 µM
HitlevelM ([2]; 2µM): 4

SMILES: O=C(O)C(F)(F)F.O=c1[nH]ccc2nc(N[C@@H]3CCCNC3)nc(Nc3ccc(S(=O)(=O)N4CCOCC4)cc3)c12 [TCMDC-135038]
Selectivity ratio F [1]: 2.68
inhibition at 2 µM ([1]; Plasmodium falciparum, 2µM, 24h preincubation with gametocytes, average of replicates, read-out: Average inhibition female (%)): 14.1%
inhibition at 2 µM ([1]; Plasmodium falciparum, 2µM, 24h preincubation with gametocytes, replicate R1, read-out: % inhibition female (individual replicates) R1): 2.2%
inhibition at 2 µM ([1]; Plasmodium falciparum, 2µM, 24h preincubation with gametocytes, replicate R2, read-out: % inhibition female (individual replicates) R2): 10.6%
inhibition at 2 µM ([1]; Plasmodium falciparum, 2µM, 24h preincubation with gametocytes, replicate R3, read-out: % inhibition female (individual replicates) R3): 4.3%
inhibition at 2 µM ([1]; Plasmodium falciparum, 2µM, 24h preincubation with gametocytes, replicate R4, read-out: % inhibition female (individual replicates) R4): 39.1%
IC50 ([1]; Plasmodium falciparum): 8.17 µM
Tox50 (HepG2 cells): 21.89 µM
Selectivity Ratio M [2]: 342.32
inhibition at 2 µM ([2]; Plasmodium falciparum, 2µM, 24h preincubation with gametocytes, average of replicates, read-out: Average inhibition male (%)): 97.4%
inhibition at 2 µM ([2]; Plasmodium falciparum, 2µM, 24h preincubation with gametocytes, replicate R1, read-out: % inhibition male (individual replicates) R1): 93.1%
inhibition at 2 µM ([2]; Plasmodium falciparum, 2µM, 24h preincubation with gametocytes, replicate R2, read-out: % inhibition male (individual replicates) R2): 99.1%
inhibition at 2 µM ([2]; Plasmodium falciparum, 2µM, 24h preincubation with gametocytes, replicate R3, read-out: % inhibition male (individual replicates) R3): 99.2%
inhibition at 2 µM ([2]; Plasmodium falciparum, 2µM, 24h preincubation with gametocytes, replicate R4, read-out: % inhibition male (individual replicates) R4): 98.2%
IC50 ([2]; Plasmodium falciparum): 0.06 µM

SMILES: O=C(O)C(F)(F)F.O=c1[nH]ccc2nc(N[C@@H]3CCNC3)nc(Nc3cc(Cl)cc(Cl)c3)c12 [TCMDC-135052]
Average inhibition female (%) [1, 13]: 61.3%
% inhibition female (individual replicates) R1 [1, 14]: 75.7%
% inhibition female (individual replicates) R3 [1, 15]: 60.7%
% inhibition female (individual replicates) R4 [1, 16]: 86.1%
Selectivity ratio F [1]: 1.49
IC50 [1]: 4.94 µM
Tox50 (HepG2 cells): 7.37 µM
Average inhibition male (%) [2, 13]: 90.0%
% inhibition male (individual replicates) R1 [2, 14]: 96.4%
% inhibition male (individual replicates) R3 [2, 15]: 98.4%
% inhibition male (individual replicates) R4 [2, 16]: 88.5%
Selectivity Ratio M [2]: 4.82
IC50 [2]: 1.53 µM

IC50 ([1]; Plasmodium falciparum): > 10 µM
IC50 ([2]; Plasmodium falciparum): 0.62 µM
SMILES: COCCN(C)CCCOc1cc2c(cc1OC)ncn2-c1cc(OCc2ccccc2C(F)(F)F)c(C(N)=O)s1.Cl [TCMDC-135214]
Selectivity ratio F [1]: 1.36
inhibition at 2 µM [1, 3]: 20.2%
inhibition at 2 µM [1, 4]: 22.9%
inhibition at 2 µM [1, 5]: 10%
inhibition at 2 µM [1, 6]: 11%
inhibition at 2 µM [1, 7]: 36.6%
HitlevelF ([1]; 2µM): 0
Tox50 (HepG2 cells): 13.65 µM
Selectivity Ratio M [2]: 22.02
inhibition at 2 µM [2, 8]: 64.6%
inhibition at 2 µM [2, 9]: 90.7%
inhibition at 2 µM [2, 10]: 80.9%
inhibition at 2 µM [2, 11]: 65.9%
inhibition at 2 µM [2, 12]: 20.9%
HitlevelM ([2]; 2µM): 3
